Activity calls are given as the source filed them. The rule behind the calls is not given here.
Key:
[1] = Cmax in Sprague-Dawley rat at 20 mg/kg, po measured upto 48 hrs by LC-MS/MS analysis; type: ADME, organism-based; conditions: in vivo
[2] = target: Insulin receptor (Homo sapiens) (UniProt P06213); assay: Inhibition of human INSR at 1 uM by Eurofins kinase assay
MOLM-13 [3] = assay: Induction of apoptosis in human MOLM-13 cells assessed as late apoptotic cells at 1 uM measured after 48 hrs by annexin-V and PI staining based flow cytometry analysis (reference value: 2.28%); type: functional
MOLM-14 = assay: Antiproliferative activity against human MOLM-14 cells harbouring FLT3-ITD assessed as inhibition of cell growth measured after 72 hrs by Celltiter-glo luminescent cell viability assay; type: functional, cell-based; conditions: MOLM-14, 72 h
OE33 = assay: Antiproliferative activity against human OE33 cells assessed as inhibition of cell growth measured after 72 hrs by Celltiter-glo luminescent cell viability assay; type: functional, cell-based; conditions: OE33, 72 h
[4] = Antiproliferative activity against mouse Ba/F3 FLT3-ITD cells assessed as inhibition of cell growth measured after 72 hrs by Celltiter-glo luminescent cell viability assay; type: functional, cell-based
Homo sapiens = species: Homo sapiens; assay: Inhibition of human DNA-PK at 1 uM by Eurofins kinase assay
[5] = AUC (0 to t) in Sprague-Dawley rat at 5 mg/kg, iv measured upto 48 hrs by LC-MS/MS analysis; type: ADME, organism-based; conditions: in vivo
MOLM-13 [6] = assay: Induction of apoptosis in human MOLM-13 cells assessed as viable cells at 3 uM measured after 48 hrs by annexin-V and PI staining based flow cytometry analysis (reference value: 88.7%); type: functional; conditions: read-out: Activity
[7] = target: Mitogen-activated protein kinase 1 (Homo sapiens) (UniProt P28482); assay: Inhibition of human MAPK1 at 1 uM by Eurofins kinase assay
[8] = target: Serine/threonine-protein kinase PAK 4 (Homo sapiens) (UniProt O96013); assay: Inhibition of human PAK4 at 1 uM by Eurofins kinase assay
[9] = target: T1, Macrophage colony-stimulating factor 1 receptor (Homo sapiens, UniProt P07333); assay: Inhibition of FMS (unknown origin) preincubated for 10 mins followed by addition of peptide solution by caliper mobility shift assay
T1 sequence (P07333 whole entry): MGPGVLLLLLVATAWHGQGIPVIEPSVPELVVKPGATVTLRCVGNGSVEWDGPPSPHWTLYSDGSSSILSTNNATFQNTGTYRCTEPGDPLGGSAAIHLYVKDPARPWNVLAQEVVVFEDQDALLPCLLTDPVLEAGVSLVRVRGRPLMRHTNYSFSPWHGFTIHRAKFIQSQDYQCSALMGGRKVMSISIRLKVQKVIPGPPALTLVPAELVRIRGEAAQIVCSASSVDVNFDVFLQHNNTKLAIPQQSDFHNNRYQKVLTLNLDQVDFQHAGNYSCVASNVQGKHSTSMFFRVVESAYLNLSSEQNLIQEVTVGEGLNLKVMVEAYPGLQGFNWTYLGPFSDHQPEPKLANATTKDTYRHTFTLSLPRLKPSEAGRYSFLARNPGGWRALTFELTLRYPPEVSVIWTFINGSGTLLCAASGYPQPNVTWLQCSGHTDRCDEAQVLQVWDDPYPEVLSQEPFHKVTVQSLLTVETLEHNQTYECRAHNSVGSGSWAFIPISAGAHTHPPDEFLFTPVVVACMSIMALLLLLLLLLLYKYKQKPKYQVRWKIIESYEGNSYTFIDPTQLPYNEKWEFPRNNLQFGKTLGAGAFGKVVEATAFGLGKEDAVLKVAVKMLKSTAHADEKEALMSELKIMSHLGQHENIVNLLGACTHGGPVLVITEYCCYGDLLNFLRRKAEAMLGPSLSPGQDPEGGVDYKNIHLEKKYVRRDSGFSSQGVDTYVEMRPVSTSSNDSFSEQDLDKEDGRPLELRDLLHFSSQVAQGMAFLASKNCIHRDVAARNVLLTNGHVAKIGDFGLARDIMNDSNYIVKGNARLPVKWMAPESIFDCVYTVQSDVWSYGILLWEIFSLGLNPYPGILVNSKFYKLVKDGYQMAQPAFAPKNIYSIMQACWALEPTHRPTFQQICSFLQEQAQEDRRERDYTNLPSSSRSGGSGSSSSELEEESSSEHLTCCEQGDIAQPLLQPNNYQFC

[10] = target: Non-receptor tyrosine-protein kinase TYK2 (Homo sapiens) (UniProt P29597); assay: Inhibition of human TYK2 at 1 uM by Eurofins kinase assay
MOLM-13 [11] = assay: Induction of cell cycle arrest in human MOLM-13 cells assessed as accumulation of cells at S phase at 3 uM measured after 48 hrs by PI staining based flow cytometry analysis (reference value: 45.3%); type: functional
[12] = target: Serine/threonine-protein kinase B-raf (Homo sapiens) (UniProt P15056); assay: Inhibition of human BRAF at 1 uM by Eurofins kinase assay
Sequence of Serine/threonine-protein kinase B-raf (Homo sapiens) (P15056 whole entry): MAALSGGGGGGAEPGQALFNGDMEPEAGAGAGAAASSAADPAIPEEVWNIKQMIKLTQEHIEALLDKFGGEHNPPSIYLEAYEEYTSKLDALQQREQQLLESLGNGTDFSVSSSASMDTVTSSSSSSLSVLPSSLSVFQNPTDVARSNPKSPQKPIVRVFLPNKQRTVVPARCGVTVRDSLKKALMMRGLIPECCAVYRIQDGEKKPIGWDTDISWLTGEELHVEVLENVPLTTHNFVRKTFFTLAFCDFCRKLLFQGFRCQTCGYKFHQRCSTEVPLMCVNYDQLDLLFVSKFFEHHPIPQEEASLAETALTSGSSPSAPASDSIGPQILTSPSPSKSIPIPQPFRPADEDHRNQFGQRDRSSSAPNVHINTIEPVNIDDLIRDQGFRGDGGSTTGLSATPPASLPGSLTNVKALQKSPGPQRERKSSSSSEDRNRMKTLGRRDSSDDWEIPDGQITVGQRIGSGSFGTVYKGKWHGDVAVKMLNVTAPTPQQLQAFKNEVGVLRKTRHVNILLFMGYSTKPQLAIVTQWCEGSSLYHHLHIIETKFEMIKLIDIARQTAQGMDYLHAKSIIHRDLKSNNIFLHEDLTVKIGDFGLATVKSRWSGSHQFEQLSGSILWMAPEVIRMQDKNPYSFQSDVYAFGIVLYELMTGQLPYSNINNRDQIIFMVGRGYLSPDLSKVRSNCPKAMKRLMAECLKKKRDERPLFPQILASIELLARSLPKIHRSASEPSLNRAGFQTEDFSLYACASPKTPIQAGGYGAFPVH

[13] = target: High affinity nerve growth factor receptor (Homo sapiens) (UniProt P04629); assay: Inhibition of human TrkA at 1 uM by Eurofins kinase assay
Sequence of High affinity nerve growth factor receptor (Homo sapiens) (P04629 33-796 limits assumed): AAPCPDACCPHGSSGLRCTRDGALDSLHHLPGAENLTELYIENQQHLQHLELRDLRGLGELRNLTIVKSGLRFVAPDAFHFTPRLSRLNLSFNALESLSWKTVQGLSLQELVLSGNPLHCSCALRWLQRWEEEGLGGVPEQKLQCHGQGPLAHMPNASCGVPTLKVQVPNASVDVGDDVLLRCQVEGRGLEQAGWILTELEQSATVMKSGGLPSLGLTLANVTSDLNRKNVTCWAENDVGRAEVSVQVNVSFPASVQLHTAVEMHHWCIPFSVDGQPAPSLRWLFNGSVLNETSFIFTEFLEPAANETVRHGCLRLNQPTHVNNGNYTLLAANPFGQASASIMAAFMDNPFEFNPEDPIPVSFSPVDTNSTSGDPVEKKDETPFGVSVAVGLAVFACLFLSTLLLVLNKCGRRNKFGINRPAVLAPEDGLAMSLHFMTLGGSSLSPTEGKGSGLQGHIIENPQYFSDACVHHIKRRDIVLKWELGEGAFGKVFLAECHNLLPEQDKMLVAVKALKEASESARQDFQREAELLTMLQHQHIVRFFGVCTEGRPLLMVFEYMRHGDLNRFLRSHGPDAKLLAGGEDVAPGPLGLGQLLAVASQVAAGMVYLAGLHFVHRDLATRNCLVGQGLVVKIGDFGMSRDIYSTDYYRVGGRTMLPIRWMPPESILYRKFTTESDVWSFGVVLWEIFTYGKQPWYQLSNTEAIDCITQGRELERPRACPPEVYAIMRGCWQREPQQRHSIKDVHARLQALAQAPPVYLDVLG

[14] = target: T1, Macrophage colony-stimulating factor 1 receptor; assay: Inhibition of human FMS assessed as residual activity at 1 uM by Eurofins kinase assay relative to control
[15] = target: Vascular endothelial growth factor receptor 2 (Homo sapiens, UniProt P35968); assay: Inhibition of VEGFR2 (unknown origin) preincubated for 10 mins followed by addition of peptide solution by caliper mobility shift assay
Sequence of Vascular endothelial growth factor receptor 2 (P35968 whole entry): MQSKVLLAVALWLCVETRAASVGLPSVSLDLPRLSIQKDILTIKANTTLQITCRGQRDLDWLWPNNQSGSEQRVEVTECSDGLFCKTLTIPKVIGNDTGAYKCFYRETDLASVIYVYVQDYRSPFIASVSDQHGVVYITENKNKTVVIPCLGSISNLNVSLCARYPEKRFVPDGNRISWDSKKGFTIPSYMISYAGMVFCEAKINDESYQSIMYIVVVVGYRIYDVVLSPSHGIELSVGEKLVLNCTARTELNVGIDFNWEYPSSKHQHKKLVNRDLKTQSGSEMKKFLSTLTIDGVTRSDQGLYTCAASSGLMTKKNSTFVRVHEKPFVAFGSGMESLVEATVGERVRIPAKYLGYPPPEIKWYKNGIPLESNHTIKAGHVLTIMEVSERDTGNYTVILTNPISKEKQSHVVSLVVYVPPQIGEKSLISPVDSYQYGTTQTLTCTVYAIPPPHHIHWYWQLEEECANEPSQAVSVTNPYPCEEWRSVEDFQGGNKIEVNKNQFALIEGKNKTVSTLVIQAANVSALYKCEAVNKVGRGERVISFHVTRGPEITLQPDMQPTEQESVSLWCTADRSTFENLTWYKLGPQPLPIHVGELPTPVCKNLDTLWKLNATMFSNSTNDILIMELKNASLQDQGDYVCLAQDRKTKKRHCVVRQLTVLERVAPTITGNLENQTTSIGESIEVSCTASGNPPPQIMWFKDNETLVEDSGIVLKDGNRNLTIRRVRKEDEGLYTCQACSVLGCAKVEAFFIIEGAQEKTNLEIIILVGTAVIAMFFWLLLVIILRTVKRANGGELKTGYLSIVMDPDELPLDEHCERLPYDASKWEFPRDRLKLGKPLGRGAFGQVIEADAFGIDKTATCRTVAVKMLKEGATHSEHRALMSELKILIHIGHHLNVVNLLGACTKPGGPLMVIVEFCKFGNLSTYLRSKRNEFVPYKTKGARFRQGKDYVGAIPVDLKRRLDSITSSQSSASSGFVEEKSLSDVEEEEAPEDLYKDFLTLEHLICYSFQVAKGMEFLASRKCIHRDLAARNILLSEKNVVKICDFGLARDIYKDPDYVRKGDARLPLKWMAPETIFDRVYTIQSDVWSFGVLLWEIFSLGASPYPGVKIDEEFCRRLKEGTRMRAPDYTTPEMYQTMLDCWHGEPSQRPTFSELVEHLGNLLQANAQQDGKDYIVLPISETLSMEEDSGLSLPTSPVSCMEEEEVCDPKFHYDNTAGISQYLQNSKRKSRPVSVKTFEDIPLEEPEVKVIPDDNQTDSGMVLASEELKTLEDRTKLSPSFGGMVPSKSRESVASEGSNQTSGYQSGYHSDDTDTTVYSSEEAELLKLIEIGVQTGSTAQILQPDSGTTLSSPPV

[16] = MRT (0 to t) in Sprague-Dawley rat at 20 mg/kg, po measured upto 48 hrs by LC-MS/MS analysis; type: ADME, organism-based; conditions: in vivo
[17] = Tmax in Sprague-Dawley rat at 20 mg/kg, po measured upto 48 hrs by LC-MS/MS analysis; type: ADME, organism-based; conditions: in vivo
[18] = Toxicity in female NSG mouse assessed as effect on liver at 20 to 40 mg/kg, po measured after 21 days by H and E staining based analysis; type: organism-based; conditions: in vivo, 504 h, dose 20-40 mg/kg, time 21 day
[19] = Half life in Sprague-Dawley rat at 20 mg/kg, po measured upto 48 hrs by LC-MS/MS analysis; type: ADME, organism-based; conditions: in vivo
MOLM-13 [20] = assay: Effect on STAT5 level in human MOLM-13 cells at 0.04 to 5 nM measured after 2 hrs by Western blot analysis; type: functional, cell-based; conditions: dose 0.04-5 nM
[21] = target: Proto-oncogene tyrosine-protein kinase ROS (Homo sapiens) (UniProt P08922); assay: Inhibition of human Ros at 1 uM by Eurofins kinase assay
[22] = test system: Receptor-type tyrosine-protein kinase FLT3 (Homo sapiens), P36888 [UNDEFINED MUTATION]; assay: Inhibition of human FLT3-ITD at 1 uM by Eurofins kinase assay
[23] = target: Wee1-like protein kinase (Homo sapiens) (UniProt P30291); assay: Inhibition of human Wee1 at 1 uM by Eurofins kinase assay
Sequence of Wee1-like protein kinase (Homo sapiens) (P30291 whole entry, looked up): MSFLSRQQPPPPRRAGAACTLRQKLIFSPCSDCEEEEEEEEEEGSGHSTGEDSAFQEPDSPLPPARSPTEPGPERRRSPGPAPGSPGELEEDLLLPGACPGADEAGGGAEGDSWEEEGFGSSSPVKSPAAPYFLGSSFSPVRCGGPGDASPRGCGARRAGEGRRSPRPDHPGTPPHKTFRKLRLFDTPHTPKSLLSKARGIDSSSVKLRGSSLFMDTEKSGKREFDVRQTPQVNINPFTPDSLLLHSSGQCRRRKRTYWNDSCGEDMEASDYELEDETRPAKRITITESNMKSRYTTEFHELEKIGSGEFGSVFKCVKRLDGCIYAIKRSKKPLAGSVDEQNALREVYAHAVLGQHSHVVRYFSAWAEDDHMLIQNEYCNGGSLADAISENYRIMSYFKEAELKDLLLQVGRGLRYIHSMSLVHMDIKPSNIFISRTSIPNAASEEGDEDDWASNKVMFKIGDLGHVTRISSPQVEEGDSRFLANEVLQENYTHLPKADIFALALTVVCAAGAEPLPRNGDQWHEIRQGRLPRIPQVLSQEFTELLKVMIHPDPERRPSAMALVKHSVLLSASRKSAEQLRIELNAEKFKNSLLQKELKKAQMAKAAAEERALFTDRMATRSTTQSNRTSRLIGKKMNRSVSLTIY

[24] = target: Mitogen-activated protein kinase kinase kinase 1 (Homo sapiens) (UniProt Q13233); assay: Inhibition of human MEKK1 at 1 uM by Eurofins kinase assay
[25] = target: Serine/threonine-protein kinase Nek2 (Homo sapiens) (UniProt P51955); assay: Inhibition of human NEK2 at 1 uM by Eurofins kinase assay
Sequence of Serine/threonine-protein kinase Nek2 (Homo sapiens) (P51955 whole entry): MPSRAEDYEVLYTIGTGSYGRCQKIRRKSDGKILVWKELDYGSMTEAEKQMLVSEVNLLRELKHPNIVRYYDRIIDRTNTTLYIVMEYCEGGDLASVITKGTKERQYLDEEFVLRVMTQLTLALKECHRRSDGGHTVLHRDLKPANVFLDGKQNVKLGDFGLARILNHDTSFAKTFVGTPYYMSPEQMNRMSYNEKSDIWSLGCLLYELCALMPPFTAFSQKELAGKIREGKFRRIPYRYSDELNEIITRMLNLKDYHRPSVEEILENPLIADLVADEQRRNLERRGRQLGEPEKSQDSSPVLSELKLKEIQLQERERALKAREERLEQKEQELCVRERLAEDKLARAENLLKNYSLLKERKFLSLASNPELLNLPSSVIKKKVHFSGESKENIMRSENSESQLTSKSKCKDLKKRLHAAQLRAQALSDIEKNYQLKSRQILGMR

MOLM-13 [26] = assay: Antitumor activity against human MOLM-13 cells xenografted in female NSG mouse model assessed as delay in tumor growth at 20 to 40 mg/kg/day, po measured after 21 days; type: functional, organism-based; conditions: dose 20-40 mg/kg/day, time 21.0 day
U-87 MG = assay: Antiproliferative activity against human U-87 MG cells assessed as inhibition of cell growth measured after 72 hrs by Celltiter-glo luminescent cell viability assay; type: functional, cell-based, U-87MG ATCC
[27] = target: Fibroblast growth factor receptor 1 (Homo sapiens) (UniProt P11362); assay: Inhibition of human FGFR1 at 1 uM by Eurofins kinase assay
MOLM-13 [28] = assay: Induction of cell cycle arrest in human MOLM-13 cells assessed as accumulation of cells at S phase at 1 uM measured after 48 hrs by PI staining based flow cytometry analysis (reference value: 45.3%); type: functional
MOLM-13 [29] = assay: Induction of cell cycle arrest in human MOLM-13 cells assessed as accumulation of cells at G1 phase at 0.3 uM measured after 48 hrs by PI staining based flow cytometry analysis (reference value: 42.8%); type: functional
[30] = target: Receptor-type tyrosine-protein kinase FLT3 (Homo sapiens) (UniProt P36888); assay: Inhibition of FLT3 phosphorylation in human MOLM-13 cells at 40 nM incubated for 2 hrs by Western blot analysis relative to control; type: cell-based
MOLM-13 [31] = assay: Induction of apoptosis in human MOLM-13 cells assessed as early apoptotic cells at 0.3 uM measured after 48 hrs by annexin-V and PI staining based flow cytometry analysis (reference value: 8.92%); type: functional
[32] = Clearance in Sprague-Dawley rat at 5 mg/kg, iv measured upto 48 hrs by LC-MS/MS analysis; type: ADME, organism-based; conditions: in vivo
[33] = target: Tyrosine-protein kinase receptor UFO (Homo sapiens) (UniProt P30530); assay: Inhibition of human AXL at 1 uM by Eurofins kinase assay
MOLM-13 [34] = assay: Induction of cell cycle arrest in human MOLM-13 cells assessed as accumulation of cells at G2 phase at 3 uM measured after 48 hrs by PI staining based flow cytometry analysis (reference value: 12.5%); type: functional

O=C(Nc1ccc(Oc2ccnc(NC(=O)N3CC(O)C3)c2)c(F)c1)c1cn(-c2cccnc2)nn1
Cmax [1]: 8020 ng/mL
inhibition [2]: inactive
Activity (MOLM-13 [3]): 9.44%
IC50 (MOLM-14): 220 nM
IC50 (OE33): > 30000 nM
IC50 [4]: 85 nM
inhibition (Homo sapiens): inactive
AUC(0-t) at 48 h [5]: 59300 ng·h/mL
viability at 3 µM (MOLM-13 [6]): 50.6%
inhibition [7]: inactive
inhibition [8]: inactive
IC50 [9]: 131 nM
inhibition [10]: inactive
Activity (MOLM-13 [11]): 4.87%
inhibition [12]: inactive
inhibition [13]: inactive
Activity [14]: 22%
IC50 [15]: 112 nM
MRT last at 48 h [16]: 4.49 h
Tmax [17]: 1.83 h
Activity [18]: Non-toxic
half-life [19]: 3.57 h
Activity (MOLM-13 [20]): Not active; Compound Barely Affect Stat5 Level
inhibition [21]: inactive
inhibition [22]: inactive
inhibition [23]: inactive
inhibition [24]: inactive
inhibition [25]: inactive
Activity (MOLM-13 [26]): Active
IC50 (U-87 MG): > 30000 nM
inhibition [27]: inactive
Activity (MOLM-13 [28]): 3.57%
Activity (MOLM-13 [29]): 79.4%
inhibition [30]: 100%
Activity (MOLM-13 [31]): 25%
clearance [32]: 1.41 mL/min/kg
inhibition [33]: inactive
Activity (MOLM-13 [34]): 1.05%
